Measurements reported in patent US20080287445A1, “Prokineticin 2 receptor antagonists” (priority 2005, published 2008).
“And” between values parts separate entries of the source, which are not always exact repeats. Equal values may be shown once.

Target: T1, GPR73 (prokineticin 1 receptor) (Homo sapiens, UniProt Q8TCW9)
T1 construct: expressed in transfected cells; host or cells: HEK 293
Assay: PK1 functional assay: Ca2+ mobilization screening for PK1 antagonists on the FLIPR
Type: cell-based
Conditions: HEK 293 GPR73 cells, multiple values = multiple testing; for inhibition at 10 µM: HEK293, 10 μM compound, read-out: Ca^2+ Mobilization % Inh @ 10 μM; for IC50: PK1 ligand preparation at its EC50, read-out: Ca^2+ Mobilization IC50; for Ca^2+ Mobilization % Inh @ 10 μM: 10 μM compound
Method in brief: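 HEK293 cells expressing human GPR73 were loaded with Calcium Plus dye, then on FLIPR given compound for 4 min 15 s before PK1 ligand at its predetermined EC50. Baseline-subtracted fluorescence over 1 min 45 s gave percent inhibition versus maximal signal; IC50 fitted.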

T1 sequence (Q8TCW9 whole entry, species assumed): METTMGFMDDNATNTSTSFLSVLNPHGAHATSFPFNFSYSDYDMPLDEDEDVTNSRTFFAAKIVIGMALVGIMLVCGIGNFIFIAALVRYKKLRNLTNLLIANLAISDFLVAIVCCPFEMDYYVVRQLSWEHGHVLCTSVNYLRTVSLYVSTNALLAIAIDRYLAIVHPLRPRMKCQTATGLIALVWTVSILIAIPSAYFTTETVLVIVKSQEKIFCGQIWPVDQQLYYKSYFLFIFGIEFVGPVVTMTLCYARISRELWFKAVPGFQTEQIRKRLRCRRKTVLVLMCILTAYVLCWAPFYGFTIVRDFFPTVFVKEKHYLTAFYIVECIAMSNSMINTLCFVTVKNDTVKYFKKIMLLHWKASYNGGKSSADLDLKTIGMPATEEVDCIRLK

Row | inhibition at 10 µM [%] | IC50 | Ca^2+ Mobilization % Inh @ 10 μM | Compound
1 | 103 | 60 nM | – | COc1ccc(Cn2c(=O)nc(NCc3cccnc3N)n(Cc3ccc(OC)c(F)c3)c2=O)cc1 [Cpd 203]
2 | 102 | 106 nM | – | COc1ccc(Cn2c(=O)nc(NCc3cccnc3N)n(Cc3ccc(OC)cc3F)c2=O)cc1 [Cpd 205]
3 | 39 | > 10000 nM | – | Cc1cc(C)c(CNc2nc(=O)n(Cc3ccc4c(c3)OCCO4)c(=O)n2Cc2ccc(OC(F)F)cc2)cn1 [Cpd 210]
4 | 52 | 4580 nM | – | COc1ccc(Cn2c(SCc3cccnc3)cc(=O)n(Cc3ccc(OC)cc3)c2=O)cc1 [Cpd 211, 1,3-Bis-(4-methoxy-benzyl)-6-(pyridin-3-ylmethylsulfanyl)-1H-pyrimidine-2,4-dione]
5 | 103 | 21 nM and 50 nM | 99% | COc1ccc(Cn2c(=O)nc(NCc3c(C)cc(C)nc3N)n(Cc3ccc4c(c3)CC(C)O4)c2=O)cc1 (stereo not shown) [Cpd 212]
6 | 45 | > 10000 nM | – | COc1ccc(Cn2c(NCc3c(C)cc(C)nc3N3CCCCC3)nc(=O)n(Cc3ccc(OC)cc3)c2=O)cc1 [Cpd 213]
7 | – | 500 nM and 2780 nM | 104% and 68% | COc1ccc(Cn2c(NCCc3ccncc3)nc(=O)n(Cc3ccc(OC)cc3)c2=O)cc1 [Cpd 215]
8 | 94 | 104 nM | – | COc1ccc(Cn2c(NCc3cnc(C)cc3C)nc(=O)n(Cc3ccc(OC)c(F)c3)c2=O)cc1 [Cpd 218]
9 | 94 | 136 nM and 158 nM | 97% | Cc1cc(C)c(CNc2nc(=O)n(Cc3ccc4c(c3)OCO4)c(=O)n2Cc2ccc(OC(F)F)cc2)c(N)n1 [Cpd 219]
10 | 98 | 45 nM and 72 nM | 96% | Cc1cc(C)c(CNc2nc(=O)n(Cc3ccc4c(c3)nnn4C)c(=O)n2Cc2ccc(OC(F)F)cc2)c(N)n1 [Cpd 221]
11 | 63 | 3400 nM | – | Nc1ncccc1CNc1nc(=O)n(Cc2ccc3[nH]ccc3c2)c(=O)n1Cc1ccc(OC(F)F)cc1 [Cpd 228]
12 | 66 | 2750 nM | – | COc1ccc(Cn2c(NCc3cccnc3N)nc(=O)n(Cc3ccc4[nH]ccc4c3)c2=O)cc1 [Cpd 230]
13 | 89 | 245 nM | – | COc1ccc(Cn2c(NCc3cccnc3N)nc(=O)n(Cc3ccc(Cl)cc3)c2=O)cc1 [Cpd 231]
14 | 33 | > 10000 nM | – | COc1ccc(Cn2c(OCc3ccnc(N)n3)cc(=O)n(Cc3ccc(OC)cc3)c2=O)cc1 [Cpd 232]
15 | 96 | 69 nM and 130 nM | 97% | Cc1cc(C)[n+]([O-])c(N)c1CNc1nc(=O)n(Cc2ccc3c(c2)CCO3)c(=O)n1Cc1ccc(OC(F)F)cc1 [Cpd 233, 6-[(2-Amino-4,6-dimethyl-1-oxy-pyridin-3-ylmethyl)-amino]-1-(4-difluoromethoxy-benzyl)-3-(2,3-dihydro-benzofuran-5-ylmethyl)-1H-[1,3,5]triazine-2,4-dione]
16 | 98 | 85 nM | – | COc1ccc(Cn2c(NCc3ccc(C(F)(F)F)cn3)nc(=O)n(Cc3ccc(OC)cc3)c2=O)cc1 [Cpd 235]
17 | 64 | 1270 nM | – | COc1ccc(Cn2c(NCc3ncccc3C(F)(F)F)nc(=O)n(Cc3ccc(OC)cc3)c2=O)cc1 [Cpd 236]
18 | 48 | 8320 nM | – | COc1ccc(Cn2c(NCc3c(N)nc4c(c3-c3ccccc3)CCC4)nc(=O)n(Cc3ccc(OC)cc3)c2=O)cc1 [Cpd 246]
19 | 100 | 27 nM and 30 nM | 97% | COc1ccc(Cn2c(NCc3cnc(C)cn3)nc(=O)n(Cc3ccc(OC)cc3)c2=O)cc1 [Cpd 247]
20 | 90 | 194 nM | – | COc1ccc(Cn2c(SCc3cccnc3N)cc(=O)n(Cc3ccc(OC)cc3)c2=O)cc1 [Cpd 249]
21 | 93 | 225 nM | – | Cc1cc(CO)c(CNc2nc(=O)n(Cc3ccc4c(c3)CCO4)c(=O)n2Cc2ccc(OC(F)F)cc2)c(N)n1 [Cpd 251]
22 | 71 | 1350 nM | – | COCCCCCn1c(=O)nc(NCc2c(C)cc(C)nc2N)n(Cc2ccc(OC)cc2)c1=O [Cpd 252, 6-[(2-Amino-4,6-dimethyl-pyridin-3-ylmethyl)-amino]-1-(4-methoxy-benzyl)-3-(5-methoxy-pentyl)-1H-[1,3,5]triazine-2,4-dione]
23 | 97 | 9 nM | – | COCCCCCn1c(NCc2c(C)cc(C)nc2N)nc(=O)n(Cc2ccc(Cl)cc2)c1=O [Cpd 253]
24 | 99 | 118 nM | – | COCCCCCn1c(NCc2cccnc2N)nc(=O)n(Cc2ccc(Cl)cc2)c1=O [Cpd 256]

Second part, the compound before the results:

Row | Compound | inhibition at 10 µM [%] | IC50 | Ca^2+ Mobilization % Inh @ 10 μM
25 | COc1ccc(Cn2c(=O)nc(NCc3cnc(C)cc3C)n(Cc3ccc(OC)c(F)c3)c2=O)cc1 [Cpd 204] | 102 | 68 nM | –
26 | COc1ccc(Cn2c(=O)nc(NCc3cnc(C)cc3C)n(Cc3ccc(OC)cc3F)c2=O)cc1 [Cpd 206] | 102 | 46 nM | –
27 | COc1ccc(Cn2c(NCc3cnc(C)cc3C)nc(=O)n(Cc3ccc4c(c3)OCO4)c2=O)cc1 [Cpd 207] | 92 | 461 nM and 471 nM | 93%
28 | Cc1cc(C)c(CNc2nc(=O)n(Cc3ccc4c(c3)OCO4)c(=O)n2Cc2ccc(OC(F)F)cc2)cn1 [Cpd 208] | 73 | 1270 nM | –
29 | COc1ccc(Cn2c(NCc3cnc(C)cc3C)nc(=O)n(Cc3ccc4c(c3)OCCO4)c2=O)cc1 [Cpd 209] | 51 | 7730 nM | –
30 | COc1ccc(Cn2c(CCc3cnccc3N)cc(=O)n(Cc3ccc(OC)cc3)c2=O)cc1 [Cpd 214] | 53 | 7160 nM | –
31 | COc1ccc(Cn2c(NCc3cnc(C)cc3C)nc(=O)n(Cc3ccc4c(c3)nnn4C)c2=O)cc1 [Cpd 216] | 80 | 1060 nM | –
32 | COc1ccc(Cn2c(NCc3cnc(C)cc3C)nc(=O)n(Cc3ccc4snnc4c3)c2=O)cc1 [Cpd 217] | 81 | 1010 nM | –
33 | COc1ccc(Cn2c(NCc3c(C)cc(C)nc3N)nc(=O)n(Cc3ccc4c(c3)OCO4)c2=O)cc1 [Cpd 220] | 98 | 43 nM | –
34 | COc1ccc(Cn2c(NCc3c(C)cc(C)nc3N)nc(=O)n(Cc3ccc4c(c3)nnn4C)c2=O)cc1 [Cpd 222, 6-[(2-Amino-4,6-dimethyl-pyridin-3-ylmethyl)-amino]-1-(4-methoxy-benzyl)-3-(1-methyl-1H-benzotriazol-5-ylmethyl)-1H-[1,3,5]triazine-2,4-dione] | 98 | 60 nM | –
35 | COc1ccc(Cn2c(CCc3cccc(N)n3)cc(=O)n(Cc3ccc(OC)cc3)c2=O)cc1 [Cpd 223, 6-[2-(6-Amino-pyridin-2-yl)-ethyl]-1,3-bis-(4-methoxy-benzyl)-1H-pyrimidine-2,4-dione] | 53 | 5680 nM | –
36 | COCCCCCn1c(NCc2c(C)cc(C)nc2N)nc(=O)n(Cc2ccc(OC)cc2)c1=O [Cpd 224, 6-[(2-Amino-4,6-dimethyl-pyridin-3-ylmethyl)-amino]-3-(4-methoxy-benzyl)-1-(5-methoxy-pentyl)-1H-[1,3,5]triazine-2,4-dione] | 97 | 7 nM and 11 nM | –
37 | COc1ccc(Cn2c(OC(C)c3ccnc(N)c3)cc(=O)n(Cc3ccc(OC)cc3)c2=O)cc1 (stereo not shown) [Cpd 225] | 68 | 3780 nM | –
38 | Cc1cc(C)[n+]([O-])c(N)c1CNc1nc(=O)n(Cc2ccc3c(c2)CCO3)c(=O)n1Cc1ccc2c(c1)CCO2 [Cpd 226, 6-[(2-Amino-4,6-dimethyl-1-oxy-pyridin-3-ylmethyl)-amino]-1,3-bis-(2,3-dihydro-benzofuran-5-ylmethyl)-1H-[1,3,5]triazine-2,4-dione] | 85 | 922 nM | –
39 | Cc1cc(C)c(CNc2nc(=O)n(Cc3ccc4[nH]ccc4c3)c(=O)n2Cc2ccc(OC(F)F)cc2)cn1 [Cpd 227] | 44 | > 10000 nM | –
40 | COc1ccc(Cn2c(NCc3cnc(C)cc3C)nc(=O)n(Cc3ccc4[nH]ccc4c3)c2=O)cc1 [Cpd 229] | 41 | > 10000 nM | –
41 | COc1ccc(Cn2c(NC(C)c3ccccn3)nc(=O)n(Cc3ccc(OC)cc3)c2=O)cc1 (stereo not shown) [Cpd 234] | 66 | 2590 nM | –
42 | COc1ccc(Cn2c(NCc3cc(C(F)(F)F)ccn3)nc(=O)n(Cc3ccc(OC)cc3)c2=O)cc1 [Cpd 237] | 69 | 1680 nM | –
43 | Nc1ncccc1CNc1nc(=O)n(Cc2ccc3snnc3c2)c(=O)n1Cc1ccc2c(c1)CCO2 [Cpd 242] | 95 | 251 nM | –
44 | Cc1cc(C)c(CNc2nc(=O)n(Cc3ccc4snnc4c3)c(=O)n2Cc2ccc3c(c2)CCO3)cn1 [Cpd 243] | 75 | 914 nM | –
45 | Cn1nnc2cc(Cn3c(=O)nc(NCc4cccnc4N)n(Cc4ccc5c(c4)CCO5)c3=O)ccc21 [Cpd 244] | 94 | 121 nM | –
46 | Cc1cc(C)c(CNc2nc(=O)n(Cc3ccc4c(c3)nnn4C)c(=O)n2Cc2ccc3c(c2)CCO3)cn1 [Cpd 245] | 45 | > 10000 nM | –
47 | COc1ccc(Cn2c(NCc3cnc(C)nc3N)nc(=O)n(Cc3ccc(OC)cc3)c2=O)cc1 [Cpd 248] | 103 | 34 nM | –
48 | COc1ccc(Cn2c(NCc3c(COCc4ccccc4)cc(C)nc3N)nc(=O)n(Cc3ccc(OC)cc3)c2=O)cc1 [Cpd 250] | 48 | 8630 nM | –
49 | COCCCCCn1c(NCc2c(C)cc(C)nc2N)nc(=O)n(Cc2ccccc2)c1=O [Cpd 254] | 96 | 98 nM | –
50 | COCCCCCn1c(NCc2c(C)cc(C)nc2N)nc(=O)n(Cc2ccc(Cl)c(Cl)c2)c1=O [Cpd 255] | 99 | 78 nM | –
